Laboratory results published in patent US7361681B2, “Method of treating amytrophic lateral sclerosis using melatonin” (SYGNIS Bioscience GmbH & Co. KG, priority 2003, dated 2008).
Where “and” joins values, the source holds several entries; their conditions need not be identical. Equal values may be shown once.

Columns and labels:
ALS patients = assay: pilot program of chronic high-dose melatonin in ALS patients; type: in vivo, human
Description: Three ALS patients with an estimated onset of disease 2-4 yr previously, were included in a pilot program in Göttingen, set up to explore potential effects and side-effects of chronic high-dose melatonin in this condition. Intraindividual follow-up (upon entering the study, and after 1, 2, 6, 9 and 13 months of treatment thus far) included physical examination/clinical rating scales (ALS functional rating scale, ALSFRS), pulmonary function test, EMG-NCV, routine laboratory parameters, psychological rating scales, as well as magnetic resonance imaging and MR spectroscopy. Patients received 30-60 mg of melatonin as an oral slow release formulation in the late evening. In addition, they continued their “regular medication” in the morning and at noon (RIUZOLE® 50-100 mg, vitamins C and E, creatine, […]).

[1] = cited from earlier work
[2] = 30-60 mg melatonin oral slow release in the late evening, up to 13 months

Description for SODG93A-transgenic mice: Rotarod failure is defined to start when mice are no longer able to stay in the rotarod for more than 300 sec (=early disease state).
Shown are days after score 1 (abnormal hindlimb reflex or tremor in at least one extremity or asymmetrical gait) to score 4 (endpoint criteria/death).
Melatonin was continuously applied via drinking water (0.5 mg/ml of water containing 1% of ethanol to enable a saturated solution of melatonin) starting on day 28 of life and continued until death. The vehicle control received water containing 1% of ethanol.

Structure (SMILES): COc1ccc2[nH]cc(CCNC(C)=O)c2c1 [melatonin, N-acetyl-5-methoxytryptamine]
- side effects reported or detected (ALS patients; [2]): No side effects
- signs of fatigue (ALS patients; [2]): no signs of fatigue
- tolerability over the entire observation period (ALS patients; 30-60 mg melatonin oral slow release in the late evening, up to 13 months, plus regular medication): well tolerated
- clinical laboratory parameters (blood cell count, electrolytes, liver enzymes, creatinine, CRP etc.) during melatonin treatment (ALS patients; 30-60 mg melatonin oral slow release nightly): did not show alterations
- clinical rating scale (ALSFRS) one year later (ALS patients; three patients, 30-60 mg melatonin oral slow release nightly): 22 and 11 and 20
- clinical rating scale (ALSFRS) at the start of the trial (ALS patients; three patients, baseline): 34 and 25 and 31
- crossing of the blood-brain barrier ([1]; in vivo): readily crosses
- duration of high plasma levels ([1]; slow release preparations): about 6 hr
- survival and course of disease (rotarod performance, progression of paresis, weight loss) (SODG93A-transgenic mice; 0.5 mg/ml in drinking water with 1% ethanol, from day 28 of life until death): significant improvement
- adverse effects of systemic melatonin (SODG93A-transgenic mice; 0.5 mg/ml in drinking water, application of several months): No adverse effects
- days from rotarod failure (no longer able to stay more than 300 sec) to death, versus vehicle (SODG93A-transgenic mice; SODG93A mice, n=9-12 per group, FIG. 1): significantly more
- days from clinical score 1 to score 4 (endpoint criteria/death), versus vehicle (SODG93A-transgenic mice; SODG93A mice, n=9-12 per group, FIG. 2): significantly more
